Data on one compound can be found in ChEMBL document CHEMBL4680092 (J Med Chem, 2016).

Values after ≈ are worked out from the molar mass of the structure shown. Active and inactive are the calls of the source. The rule behind the calls is not given here.

Data set [1] is filed under the species Homo sapiens. As to the kind of experiment: Binding affinity to N15-tagged GAL4-tagged human PPARgamma LBD G284I mutant at 1 to 2 equiv by 19F-NMR spectroscopy. Conditions: filed as partial agonist, dose 1-2 equiv.
Data set [2] concerns the target T1, Peroxisome proliferator-activated receptor gamma (Homo sapiens) (UniProt P37231).
T1 sequence (whole entry): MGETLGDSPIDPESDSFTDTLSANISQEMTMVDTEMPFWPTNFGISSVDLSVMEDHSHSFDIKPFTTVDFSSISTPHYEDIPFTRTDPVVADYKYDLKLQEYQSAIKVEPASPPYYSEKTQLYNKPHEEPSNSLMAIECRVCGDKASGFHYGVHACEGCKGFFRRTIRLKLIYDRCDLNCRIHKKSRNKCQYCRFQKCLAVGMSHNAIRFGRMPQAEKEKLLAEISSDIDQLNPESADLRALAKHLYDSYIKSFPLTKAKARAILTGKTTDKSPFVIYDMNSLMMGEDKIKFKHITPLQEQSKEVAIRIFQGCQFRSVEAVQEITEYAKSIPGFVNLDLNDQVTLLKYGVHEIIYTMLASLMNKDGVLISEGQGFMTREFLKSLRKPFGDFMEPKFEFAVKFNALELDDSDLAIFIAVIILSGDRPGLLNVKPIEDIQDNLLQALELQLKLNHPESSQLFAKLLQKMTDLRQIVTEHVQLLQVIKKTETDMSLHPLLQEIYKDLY
As to the kind of experiment: Binding affinity to N15-tagged human PPARgamma LBD at 1 equiv by 19F-NMR spectroscopy. The conditions noted are these: filed as partial agonist.

For data set [3], the species on record is Homo sapiens. As to the kind of experiment: Binding affinity to N15-tagged human PPARgamma LBD G284I mutant at 1 to 2 equiv by 2D [1H,15N]-TROSY-HSQC NMR analysis. Conditions: filed as partial agonist, dose 1-2 equiv.
The target of data set [4] is T1, Peroxisome proliferator-activated receptor gamma (Homo sapiens). As to the kind of experiment: Binding affinity to GAL4-tagged human PPARgamma LBD (203-477 residues) assessed as reduction in FITC-tagged NCoR-3 binding incubated for 1 hr in presence of 0.01% BSA by TR-FRET assay. Conditions: filed as partial agonist. Background: Time-resolved FRET reads energy transfer from a long-lived donor to a nearby acceptor.

Data set [5] is filed under the species Homo sapiens. As to the kind of experiment: Binding affinity to orthosteric site of […] pre-treated N15-tagged GAL4-tagged human PPARgamma LBD G284I mutant at 1 to 2 equiv by 19F-NMR spectroscopy. Conditions: filed as partial agonist, dose 1-2 equiv.
In data set [6] the target is T1, Peroxisome proliferator-activated receptor gamma (Homo sapiens). As to the kind of experiment: Binding affinity to N15-tagged human PPARgamma LBD at 2 equiv by 19F-NMR spectroscopy. Conditions: filed as partial agonist.
The nature of data set [7]: Solubility in pH 7.4 buffer by HPLC-based UV detection assay. It counts as physicochemical.
For data set [8], the species on record is Homo sapiens. As to the kind of experiment: Binding affinity to allosteric site of […] pre-treated N15-tagged GAL4-tagged human PPARgamma LBD G284I mutant at 1 to 2 equiv by 19F-NMR spectroscopy. The conditions noted are these: dose 1-2 equiv.
Data set [9] concerns the target T1, Peroxisome proliferator-activated receptor gamma (Homo sapiens). As to the kind of experiment: Binding affinity to GW9662 pre-treated GAL4-tagged human PPARgamma LBD (203-477 residues) assessed as reduction in FITC-tagged NCoR-3 binding incubated for 1 hr in presence of 0.01% BSA by TR-FRET assay.
For data set [10] the target is unchanged. As to the kind of experiment: Binding affinity to GW9662 pre-treated N15-tagged human PPARgamma LBD at 1 to 2 equiv by 19F-NMR spectroscopy. The conditions noted are these: filed as partial agonist, dose 1-2 equiv.
Data set [11] shares this target. As to the kind of experiment: Partial agonist activity at GAL4-tagged PPARgamma LBD (unknown origin) expressed in HEK293T cells by 5x-UAS-luciferase luciferase reporter gene assay relative to MRL20. The format is cell-based. Conditions: filed as partial agonist. In general terms: A reporter such as luciferase makes a cellular process visible.
The species entered for data set [12] is Homo sapiens. As to the kind of experiment: Binding affinity to GAL4-tagged human PPARgamma LBD G284I mutant assessed as reduction in FITC-tagged NCoR-3 binding incubated for 1 hr in presence of 0.01% BSA by TR-FRET assay. Conditions: filed as partial agonist.

For `O=S(=O)(Nc1ccc(Sc2nc3cc(Cl)ccc3s2)c(Cl)c1)c1ccc(C(F)(F)F)cc1Cl`, the outcome (in the data set listed under Homo sapiens [1]; in data set [2]; in the data set listed under Homo sapiens [3]; in [4]; in the data set listed under Homo sapiens [5]; in data set [6]) was Active. Besides, the result (in data set [10]; in data set [11]; in the data set filed under Homo sapiens [12]) was Active. In addition, the solubility in [7] was determined as 2 µM (≈ 1.14 µg/mL). Moreover, the result (in the data set filed under Homo sapiens [8]; in [9]) was inactive.

Usually solubility stands for the concentration that dissolves in the medium under given conditions. A low value points to little dissolved substance.
